Measured values from publication PMC8708821, “Comprehensive Analysis and Biological Characterization of Venom Components from Solitary Scoliid Wasp Campsomeriella annulata annulata” (Toxins, 2021).
Read-outs that look alike come from different tables or passages of the source. Marks after values point to notes of the source that are not given here. No end group written: not given here.

What was measured:
[1] = tested on: Vero cells; experiment: Toxicity on cell integrity, crystal violet, Vero cells; assay type: cell-based, Cercopithecus aethiops (African green monkey); conditions: for cytotoxicity in Vero cells: 0.1, 1 and 10 μmol·L−1, 1, 6, 24 and 48 h, vs untreated cells, n = 3 in triplicate
Experimental: (§1) The cytotoxic effects of α-campsomerin and β-campsomerin were determined by the staining of attached cells with crystal violet dye, according to the literature. In a 96-well plate (Nest Biotechnology, Rahway, USA), PC12 and Vero cells were put at 2.0 × 10^4 and 1.0 × 10^4 cells/well, respectively. Cells were treated with different concentrations (0.1 to 10 µmol·L^−1) of peptides in 0.10 mL. The plate was incubated for 1, 6, 24, and 48 h at 37 °C. There were control and DMSO groups for each concentration and time course tested, representing untreated cells (just one equal volume of culture medium) and cells treated with DMSO (5%; v/v) diluted in the medium culture, respectively. The media was then aspirated, and the cells were stained with a 0.5 percent crystal violet staining solution (0.5%; m/v), washed, and air-dried. Afterwards, methanol (200 μL) was added, and the absorbance measured at 570 nm using a SpectraMax reader (Molecular Devices, CA, USA). Data were obtained from three independent experiments in triplicate, and were expressed by percentage of cell viability, calculated using the control group as 100% of integrity.

[2] = tested on: PC12 cells; experiment: Toxicity on cell integrity, crystal violet, PC12 cells; assay type: cell-based, rat
Experimental: as §1

[3] = tested on: PC12 cells; experiment: Neuroprotective assay against H2O2-induced oxidative stress; assay type: cell-based, rat
Experimental: Initially, PC12 cells were seeded at 2 × 10^4 cells/well in a 96-well plate (Nest Biotechnology, Rahway, NJ, USA) for 24 h. To evaluate the neuroprotective effects of peptides, cells were pre-treated at 37 °C with α-campsomerin and β-campsomerin (0.1 to 20 µmol·L^−1), diluted in DMEM medium supplemented with antibiotics without fetal bovine serum for 4 h. […] Cells untreated with H2O2 represent control group in all experiments. Next, all groups were analyzed by the cell integrity.

[4] = target: T1, AChE from Electrophorus electricus (electric eel) Type VI-S (Electrophorus electricus, UniProt O42275); experiment: AChE activity, Ellman's technique; assay type: biochemical; conditions: positive control; mean ± SD, three independent experiments in triplicate
T1 construct: purchased Sigma-Aldrich Type VI-S
Experimental: The AChE activity was evaluated spectrophotometrically using Ellman’s technique, as previously reported by Harry et al., with slight modifications. Both peptides (20 μL) at varied concentrations (20, 10, 5, 1, and 0.1 µmol·L^−1), 10 μL of AChE (0.5 U·mL^−1) (Sigma, St. Louis, MO, USA) and 160 μL of 5,5-dithiobis-2-nitrobenzoic acid (DTNB, Ellman’s reagent) 0.33 mM (Sigma, St. Louis, MO, USA) in phosphate buffer (0.1 mo·L^−1, pH 8.0) were placed in triplicate in a microplate, and incubated at room temperature for 10 min after adding 10 μL of acetylthiocholine iodide (20 mmol·L^−1) (Sigma, St. Louis, MO, USA). The hydrolysis of acetylthiocholine iodide leads to production of acetic acid and thiocholine, which reacts with DTNB producing the anion 5-thio-2-nitrobenzoic acid, which was monitored at 412 nm during 20 min in microplate reader (BioTek Instruments, Inc., Winooski, VT, USA. Tetraethyl pyrophosphate (TEPP; Sigma, St. Louis, MO, USA) was used as a positive control. IAChE = [(Ac − As)/Ac] × 100, where Ac = absorbance for the control and As = absorbance for the sample was used to compute the percentage of inhibition (I) of AChE.

[5] = tested on: neuronal cell lines; conditions: previous study; neuronal cell integrity and mitochondrial metabolism; ref [28]; cited from earlier work
From the text: The venom of solitary wasps is a rich source of neuroactive chemicals, including bradykinin-related peptides, which disrupt the synaptic transmission of the nAChR in the central nervous system of prey. Our group has studied the neuroprotective effects of natural peptides from solitary wasp venoms against the H2O2-induced oxidative stress in neuronal cell lines after different treatments for acute and chronic conditions.. This cell model, which promotes excessive ROS generation, with consequent neurotoxic effects, represents typical characte ...

[6] = tested on: Escherichia coli (NBRC 14237); experiment: Antimicrobial activity (MIC), E. coli; assay type: cell-based
Experimental: (§2) Antimicrobial, hemolytic, and histamine-releasing activities were measured as described previously. The microbial species used in this study were: Escherichia coli (NBRC 14237), Staphylococcus aureus (NBRC 12732), and Saccharomyces cerevisiae (NBRC 10217), which were purchased from the Biological Resource Center (BRC, Kisarazu, Japan), National Institute of Technology and Evaluation. The pI of peptides was calculated with IPC (http://isoelectric.org/index.html, accessed on 8 November 2021). The physicochemical properties were examined using HeliQuest (http://heliquest.ipmc.cnrs.fr/, accessed on 8 November 2021).

[7] = tested on: Staphylococcus aureus (NBRC 12732); experiment: Antimicrobial activity (MIC), S. aureus; assay type: cell-based
Experimental: as §2

[8] = tested on: Saccharomyces cerevisiae (NBRC 10217); experiment: Antimicrobial activity (MIC), S. cerevisiae; assay type: cell-based
Experimental: as §2

[9] = Hemolytic activity; assay type: cell-based
Experimental: as §2

[10] = tested on: mast cells; experiment: Histamine-releasing activity; assay type: cell-based
Experimental: as §2

[11] = ref Shigeri et al. [34]; cited from earlier work
From the text: Table 10 Antimicrobial, hemolytic, and histamine-releasing activities of annulatin and related peptides. | column: Hemolytic Activity (%) / at 10 μmol·L^−1

[12] = tested on: mast cells; conditions: ref Shigeri et al. [34]; cited from earlier work
From the text: Table 10 Antimicrobial, hemolytic, and histamine-releasing activities of annulatin and related peptides. | column: Histamine Releasing Activity at 10 μmol·L^−1 (%)

[13] = target: human neprilysin (NEP) (Homo sapiens, UniProt P08473); experiment: NEP catalytic activity inhibition (FRET substrate); assay type: biochemical; conditions: peptide 20, 30 and 50 μmol·L−1; FRET substrate Abz-RGFK(Dnp)-OH 2, 4, 8 μmol·L−1; Tris HCl 50 mmol·L−1 pH 7.5; 37 °C; 15 min; triplicate
Experimental: (§3) Experiments were performed using different concentrations of α-campsomerin and β-campsomerin with ACE and NEP, and their FRET substrates, FRK(Dnp)P-OH and Abz-RGFK (Dnp)-OH, respectively. The assays used 7.5 ng of both peptidases and the substrates were added in a 100 mmol·L^−1 Tris-HCl buffer containing 50 mmol·L^−1 NaCl, 10 μmol·L^−1 ZnCl2, pH 7.0 (for ACE assays) and Tris HCl 50 mmol·L^−1, pH 7.5 buffer (for NEP assays). All experiments were carried out at 37 °C and at a final volume of 100 µL Three FRETs substrate concentrations were used (2 μmol·L^−1, 4 μmol·L^−1 and 8 μmol·L^−1), and were incubated with three concentrations of both peptides (20 μmol·L^−1, 30 μmol·L^−1 and 50 μmol·L^−1). Controls without the peptides were also performed in all assays. The reactions were monitored for 15 min on fluorimeter (Victor 3—Perkin–Elmer) and the results were analyzed on GraFit 3.0 from Erithacus Software. All assays were performed in triplicate.

[14] = target: T2, ACE I from rabbit lung (Oryctolagus cuniculus, UniProt P12822); experiment: ACE catalytic activity inhibition (FRET substrate); assay type: biochemical; conditions: peptide 20, 30 and 50 μmol·L−1; FRET substrate Abz-FRK(Dnp)P-OH 2, 4, 8 μmol·L−1; 100 mmol·L−1 Tris-HCl, 50 mmol·L−1 NaCl, 10 μmol·L−1 ZnCl2, pH 7.0; 37 °C; 15 min; triplicate
T2 construct: The ACE I from rabbit lung; purchased Sigma-Aldrich; host or cells: rabbit lung
T2 sequence (P12822 34-1310): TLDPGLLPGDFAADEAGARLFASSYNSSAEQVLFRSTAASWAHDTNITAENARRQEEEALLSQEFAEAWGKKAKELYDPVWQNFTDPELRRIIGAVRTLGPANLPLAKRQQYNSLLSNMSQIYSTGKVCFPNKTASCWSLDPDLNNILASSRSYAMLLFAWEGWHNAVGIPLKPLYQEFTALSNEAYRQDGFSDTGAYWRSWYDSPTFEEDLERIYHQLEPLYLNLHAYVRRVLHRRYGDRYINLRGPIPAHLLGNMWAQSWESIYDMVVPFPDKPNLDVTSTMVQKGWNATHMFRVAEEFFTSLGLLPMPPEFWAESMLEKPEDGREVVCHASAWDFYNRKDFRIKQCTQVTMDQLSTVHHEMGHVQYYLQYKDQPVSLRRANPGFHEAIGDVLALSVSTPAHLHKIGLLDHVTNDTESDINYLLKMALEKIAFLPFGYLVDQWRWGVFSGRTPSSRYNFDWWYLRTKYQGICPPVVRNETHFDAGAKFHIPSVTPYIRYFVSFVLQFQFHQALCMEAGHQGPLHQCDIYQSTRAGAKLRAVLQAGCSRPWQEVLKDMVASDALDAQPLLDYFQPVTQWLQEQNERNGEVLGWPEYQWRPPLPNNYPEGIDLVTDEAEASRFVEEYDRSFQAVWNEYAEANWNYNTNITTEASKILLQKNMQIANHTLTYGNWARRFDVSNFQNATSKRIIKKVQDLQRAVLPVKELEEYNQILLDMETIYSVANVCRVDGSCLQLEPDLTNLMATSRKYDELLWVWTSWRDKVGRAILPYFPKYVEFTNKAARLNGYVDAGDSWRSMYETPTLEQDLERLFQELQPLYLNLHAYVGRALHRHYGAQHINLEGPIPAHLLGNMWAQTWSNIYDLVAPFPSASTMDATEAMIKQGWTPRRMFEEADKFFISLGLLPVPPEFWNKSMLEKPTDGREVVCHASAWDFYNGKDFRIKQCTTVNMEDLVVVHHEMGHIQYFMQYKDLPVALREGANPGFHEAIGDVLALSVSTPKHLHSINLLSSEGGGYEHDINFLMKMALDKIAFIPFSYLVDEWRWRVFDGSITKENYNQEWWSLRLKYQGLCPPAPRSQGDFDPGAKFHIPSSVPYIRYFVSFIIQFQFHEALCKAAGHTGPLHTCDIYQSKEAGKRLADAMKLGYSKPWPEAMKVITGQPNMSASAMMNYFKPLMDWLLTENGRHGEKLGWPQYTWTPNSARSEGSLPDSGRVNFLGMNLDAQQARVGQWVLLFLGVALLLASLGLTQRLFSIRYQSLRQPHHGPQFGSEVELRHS
Experimental: as §3

[15] = tested on: neprilysin (NEP); experiment: Stability test: cleavage of peptide by NEP; assay type: in vitro ADME; conditions: human, isolated human neprilysin (NEP); peptide 30 µmol·L−1 incubated four hours at 37 °C with NEP (7.5 n); RP-HPLC C-18, UV 214 nm
Experimental: (§4) Both peptides (30 µmol·L^−1) were incubated for four hours at 37 °C with ACE and NEP (7.5 n). As a negative control, samples containing only synthetic peptides were employed. After incubation, samples were analyzed on a Shim-pack VP-ODS C-18 column (4.6 150 mm) utilizing reverse-phase chromatography on HPLC (Prominence, Shimadzu). Solvent A was 0.1% TFA in water (solvent A), and solvent B was acetonitrile plus solvent A (9:1). Over a 20-min period, separations were carried out at a flow rate of 1 mL/min with a 10–60 percent gradient of solvent B. Elution was always followed by an assessment of UV absorption (214 nm).

[16] = tested on: T3, ACE I; experiment: Stability test: cleavage of peptide by ACE; assay type: in vitro ADME; conditions: rabbit, isolated ACE I from rabbit lung; peptide 30 µmol·L−1 incubated four hours at 37 °C with ACE (7.5 n); RP-HPLC C-18, UV 214 nm
T3 construct: The ACE I from rabbit lung; purchased Sigma-Aldrich; host or cells: rabbit lung
Experimental: as §4

[17] = DMSO 5% (v/v), after 6, 24 and 48 h, vs control group

Chain of human neprilysin (NEP) (P08473 whole entry): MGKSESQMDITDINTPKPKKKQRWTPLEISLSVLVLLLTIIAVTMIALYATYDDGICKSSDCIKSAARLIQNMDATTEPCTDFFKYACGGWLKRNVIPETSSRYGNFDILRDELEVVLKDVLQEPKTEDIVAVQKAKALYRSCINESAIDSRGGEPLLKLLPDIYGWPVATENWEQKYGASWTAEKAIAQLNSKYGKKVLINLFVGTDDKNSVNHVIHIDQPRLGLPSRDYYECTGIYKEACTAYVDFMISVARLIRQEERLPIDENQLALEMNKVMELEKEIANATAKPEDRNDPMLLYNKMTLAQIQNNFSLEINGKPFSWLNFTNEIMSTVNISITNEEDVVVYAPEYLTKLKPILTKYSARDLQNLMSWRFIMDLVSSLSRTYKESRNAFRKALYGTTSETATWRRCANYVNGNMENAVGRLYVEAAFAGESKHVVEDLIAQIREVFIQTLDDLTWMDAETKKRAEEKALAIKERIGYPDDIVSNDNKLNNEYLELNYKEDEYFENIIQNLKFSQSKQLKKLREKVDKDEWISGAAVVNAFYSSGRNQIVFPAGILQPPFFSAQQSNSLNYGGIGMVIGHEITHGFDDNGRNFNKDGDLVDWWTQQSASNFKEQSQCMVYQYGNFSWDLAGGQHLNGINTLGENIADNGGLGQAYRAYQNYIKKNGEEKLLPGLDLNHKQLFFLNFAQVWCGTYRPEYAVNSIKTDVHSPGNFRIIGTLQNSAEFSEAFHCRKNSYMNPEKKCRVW
T1 sequence (O42275 24-633): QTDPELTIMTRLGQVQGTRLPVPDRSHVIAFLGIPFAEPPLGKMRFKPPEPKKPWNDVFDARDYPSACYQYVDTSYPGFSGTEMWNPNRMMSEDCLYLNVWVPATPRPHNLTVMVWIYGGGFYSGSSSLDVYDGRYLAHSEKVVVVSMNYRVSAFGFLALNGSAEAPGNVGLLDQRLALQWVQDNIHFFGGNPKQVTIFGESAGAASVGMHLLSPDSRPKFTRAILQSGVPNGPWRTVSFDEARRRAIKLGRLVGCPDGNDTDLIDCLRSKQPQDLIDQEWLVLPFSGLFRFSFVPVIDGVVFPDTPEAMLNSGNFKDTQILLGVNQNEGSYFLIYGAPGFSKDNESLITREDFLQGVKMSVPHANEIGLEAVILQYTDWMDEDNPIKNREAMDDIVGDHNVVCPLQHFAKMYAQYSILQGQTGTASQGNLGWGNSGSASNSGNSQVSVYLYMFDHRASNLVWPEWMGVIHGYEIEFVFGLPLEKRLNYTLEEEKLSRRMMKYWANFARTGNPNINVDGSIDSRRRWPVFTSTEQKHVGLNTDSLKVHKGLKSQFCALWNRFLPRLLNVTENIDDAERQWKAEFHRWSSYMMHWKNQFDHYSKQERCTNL

In the case of `C[S+](C)[O-]` [DMSO, reference compound], the “cell integrity in Vero cells, DMSO positive control” value [1, 17] is reported as “decreased cell integrity” and the “cell integrity in PC12 cells, DMSO positive control” value [2, 17] is reported as “decreased cell integrity”.

For `OO` [H2O2], the “reduction of PC12 cell integrity by H2O2” value ([3]; H2O2 0.5 mmol·L−1, 20 h of treatment) was 60.5 ± 4.0% and the “H2O2 concentrations promoting PC12 cell death” value ([3]; tested 1–0.06 mmol·L−1, 20 h, dose-dependent) was “greater than 0.3 mmol·L−1”.

With `CCOP(=O)(OCC)OP(=O)(OCC)OCC` [TEPP, tetraethyl pyrophosphate] the AChE inhibition percentage [4] was 76.20 ± 1.42%.

For DYVTVKGFSPLRKA [β-scoliidine], the “neuroprotective effects against H2O2-induced neurotoxicity in prolonged therapy” value [5] is listed as “showed neuroprotective effects”.

In the case of ISEALKSIIVG-NH2 [Annulatin], the “MIC E. coli (NBRC 14237)” value [6] is reported as “Negative”, the “MIC S. aureus (NBRC 12732)” value [7] is reported as “Negative” and the “MIC S. cerevisiae (NBRC 10217)” value [8] is reported as “Negative”. The “Hemolytic Activity (%) at 12.5 μmol·L−1” value [9] was 15.4% and the “Histamine Releasing Activity at 10 μmol·L−1 (%)” value [10] was 33.0%.

For Mastoparan, the “Hemolytic Activity (%) at 10 μmol·L−1” value [11] is listed as 13.5 ^b % and the “Histamine Releasing Activity at 10 μmol·L−1 (%)” value [12] is listed as 31.1 ^b %.

For Melittin: honeybee hemolytic peptide, the “Hemolytic Activity (%) at 10 μmol·L−1” value [11] is given as 100.0 ^b % and the “Histamine Releasing Activity at 10 μmol·L−1 (%)” value [12] is given as 64.3 ^b %.

In the case of PRLRRLTGLSPLR [α-campsomerin], the “Inhibition (%) NEP” value [13] is reported as <0.01%, the “Inhibition (%) ACE” value [14] is reported as <0.01% and the metabolised at 4 h, 30 µmol·L−1 [15] is reported as < 0.01%. The metabolised at 4 h, 30 µmol·L−1 [16] was < 0.01%, the “cytotoxicity in Vero cells” value [1] was “no significant cytotoxicity” and the “PC12 cell integrity after 6 h of treatment” value ([2]; all concentrations tested (0.1, 1, 10 μmol·L−1), 6 h) was “reduced cell integrity”.

For PRLRRLTGLSPLRAP [β-campsomerin], the “Inhibition (%) NEP” value [13] was <0.01%, the “Inhibition (%) ACE” value [14] was <0.01% and the metabolised at 4 h, 30 µmol·L−1 [15] was < 0.01%. The metabolised at 4 h, 30 µmol·L−1 [16] was < 0.01%, the “cytotoxicity in Vero cells” value [1] was “no significant cytotoxicity” and the “toxicity in PC12 cells under the conditions tested (discussion)” value ([2]; 0.1 to 10 µmol·L−1, up to 48 h) was “not toxic”.
